Measured values from BindingDB's records for doi:10.1016/j.ejmech.2008.01.010 (Universit&#233, 2008).
pIC50: −log10 of the molar value. Where a name gives a salt, the structure may show the parent alone.

Key:
[1] = biological target: Vascular endothelial growth factor receptor 2 (Homo sapiens, UniProt P35968); assay: Inhibition of KDR
[2] = biological target: Insulin-like growth factor 1 receptor (Homo sapiens, UniProt P08069); assay: Inhibition of IGF1R
[3] = biological target: Hepatocyte growth factor receptor (Homo sapiens, UniProt P08581); assay: Inhibition of cMet
[4] = biological target: Proto-oncogene tyrosine-protein kinase receptor Ret (Homo sapiens, UniProt P07949); assay: Inhibition of Ret
[5] = biological target: Proto-oncogene tyrosine-protein kinase Src (Homo sapiens, UniProt P12931); assay: Inhibition of Src
[6] = biological target: Tyrosine-protein kinase ABL1 (Homo sapiens, UniProt P00519); assay: Inhibition of c-Abl

Measured: pIC50

Vascular endothelial growth factor receptor 2, sequence (P35968 whole entry): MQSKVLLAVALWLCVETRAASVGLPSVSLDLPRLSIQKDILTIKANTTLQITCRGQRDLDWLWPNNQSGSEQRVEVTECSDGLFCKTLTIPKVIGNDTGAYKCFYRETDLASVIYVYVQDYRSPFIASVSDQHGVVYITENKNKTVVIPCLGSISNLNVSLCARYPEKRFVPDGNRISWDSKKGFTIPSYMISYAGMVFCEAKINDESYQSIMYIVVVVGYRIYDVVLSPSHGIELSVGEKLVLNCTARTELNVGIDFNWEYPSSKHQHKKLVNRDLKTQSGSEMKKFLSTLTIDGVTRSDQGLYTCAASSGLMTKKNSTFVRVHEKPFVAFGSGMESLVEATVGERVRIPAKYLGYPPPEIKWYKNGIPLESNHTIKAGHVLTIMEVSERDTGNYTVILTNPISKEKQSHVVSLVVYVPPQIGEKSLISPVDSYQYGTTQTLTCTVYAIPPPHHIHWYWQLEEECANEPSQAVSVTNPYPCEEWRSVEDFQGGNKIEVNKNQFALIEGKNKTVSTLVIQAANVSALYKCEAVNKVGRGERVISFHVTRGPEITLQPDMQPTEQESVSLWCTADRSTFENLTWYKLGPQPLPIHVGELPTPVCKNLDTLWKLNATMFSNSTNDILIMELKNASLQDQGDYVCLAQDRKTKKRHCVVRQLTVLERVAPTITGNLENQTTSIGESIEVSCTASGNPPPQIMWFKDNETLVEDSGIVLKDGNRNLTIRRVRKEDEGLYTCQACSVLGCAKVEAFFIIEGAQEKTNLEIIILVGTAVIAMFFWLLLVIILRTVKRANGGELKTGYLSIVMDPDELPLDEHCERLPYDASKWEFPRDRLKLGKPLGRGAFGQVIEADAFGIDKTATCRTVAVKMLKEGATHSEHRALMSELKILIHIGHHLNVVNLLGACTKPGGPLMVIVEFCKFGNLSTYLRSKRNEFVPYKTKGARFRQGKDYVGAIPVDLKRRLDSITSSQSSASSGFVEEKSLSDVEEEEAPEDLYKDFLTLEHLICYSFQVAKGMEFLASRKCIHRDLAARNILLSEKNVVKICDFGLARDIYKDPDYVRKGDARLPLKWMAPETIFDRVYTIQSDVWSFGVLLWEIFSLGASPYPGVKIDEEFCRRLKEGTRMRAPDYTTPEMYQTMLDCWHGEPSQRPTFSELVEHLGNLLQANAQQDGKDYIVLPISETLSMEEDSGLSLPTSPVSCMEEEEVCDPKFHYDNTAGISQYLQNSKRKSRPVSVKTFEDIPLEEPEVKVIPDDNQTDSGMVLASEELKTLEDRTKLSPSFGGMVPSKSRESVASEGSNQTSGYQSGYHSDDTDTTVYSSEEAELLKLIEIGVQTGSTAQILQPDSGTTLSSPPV
Insulin-like growth factor 1 receptor, sequence (P08069 31-736 limits assumed): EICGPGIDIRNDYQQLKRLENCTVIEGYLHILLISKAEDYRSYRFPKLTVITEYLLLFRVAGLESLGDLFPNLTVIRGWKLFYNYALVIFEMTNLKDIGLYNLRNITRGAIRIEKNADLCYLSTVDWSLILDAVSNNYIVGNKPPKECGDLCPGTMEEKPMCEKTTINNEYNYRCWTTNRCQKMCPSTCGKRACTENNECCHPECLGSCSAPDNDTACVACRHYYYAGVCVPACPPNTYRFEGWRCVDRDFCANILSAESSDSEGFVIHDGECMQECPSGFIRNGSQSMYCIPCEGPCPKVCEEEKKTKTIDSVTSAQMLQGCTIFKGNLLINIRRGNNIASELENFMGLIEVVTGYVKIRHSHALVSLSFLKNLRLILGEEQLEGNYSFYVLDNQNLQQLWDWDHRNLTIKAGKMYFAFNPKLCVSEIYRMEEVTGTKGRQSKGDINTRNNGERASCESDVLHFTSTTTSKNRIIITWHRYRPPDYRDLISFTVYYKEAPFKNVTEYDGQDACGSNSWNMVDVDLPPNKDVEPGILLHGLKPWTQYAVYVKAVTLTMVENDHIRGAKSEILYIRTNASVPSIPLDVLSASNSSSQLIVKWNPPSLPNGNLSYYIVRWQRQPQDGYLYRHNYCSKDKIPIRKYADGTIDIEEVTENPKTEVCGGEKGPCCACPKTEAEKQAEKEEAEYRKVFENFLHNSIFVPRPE
Insulin-like growth factor 1 receptor, sequence (P08069 741-1367 limits assumed): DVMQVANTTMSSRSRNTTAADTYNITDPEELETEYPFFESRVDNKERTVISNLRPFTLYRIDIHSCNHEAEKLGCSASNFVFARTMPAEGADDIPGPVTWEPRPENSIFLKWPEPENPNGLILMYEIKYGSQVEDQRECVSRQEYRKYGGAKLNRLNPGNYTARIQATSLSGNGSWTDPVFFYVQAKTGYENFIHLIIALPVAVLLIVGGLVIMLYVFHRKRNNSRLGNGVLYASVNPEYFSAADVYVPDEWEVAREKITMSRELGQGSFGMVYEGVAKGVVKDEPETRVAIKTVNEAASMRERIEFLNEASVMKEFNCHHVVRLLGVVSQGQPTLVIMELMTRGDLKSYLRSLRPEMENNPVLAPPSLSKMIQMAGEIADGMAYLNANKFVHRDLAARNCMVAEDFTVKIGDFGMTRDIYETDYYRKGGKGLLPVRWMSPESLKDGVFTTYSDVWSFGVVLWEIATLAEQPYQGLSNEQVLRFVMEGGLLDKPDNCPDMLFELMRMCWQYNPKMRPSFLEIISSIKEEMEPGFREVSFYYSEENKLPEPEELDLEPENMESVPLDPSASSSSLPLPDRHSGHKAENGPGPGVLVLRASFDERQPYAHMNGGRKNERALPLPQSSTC
Hepatocyte growth factor receptor, sequence (P08581 whole entry): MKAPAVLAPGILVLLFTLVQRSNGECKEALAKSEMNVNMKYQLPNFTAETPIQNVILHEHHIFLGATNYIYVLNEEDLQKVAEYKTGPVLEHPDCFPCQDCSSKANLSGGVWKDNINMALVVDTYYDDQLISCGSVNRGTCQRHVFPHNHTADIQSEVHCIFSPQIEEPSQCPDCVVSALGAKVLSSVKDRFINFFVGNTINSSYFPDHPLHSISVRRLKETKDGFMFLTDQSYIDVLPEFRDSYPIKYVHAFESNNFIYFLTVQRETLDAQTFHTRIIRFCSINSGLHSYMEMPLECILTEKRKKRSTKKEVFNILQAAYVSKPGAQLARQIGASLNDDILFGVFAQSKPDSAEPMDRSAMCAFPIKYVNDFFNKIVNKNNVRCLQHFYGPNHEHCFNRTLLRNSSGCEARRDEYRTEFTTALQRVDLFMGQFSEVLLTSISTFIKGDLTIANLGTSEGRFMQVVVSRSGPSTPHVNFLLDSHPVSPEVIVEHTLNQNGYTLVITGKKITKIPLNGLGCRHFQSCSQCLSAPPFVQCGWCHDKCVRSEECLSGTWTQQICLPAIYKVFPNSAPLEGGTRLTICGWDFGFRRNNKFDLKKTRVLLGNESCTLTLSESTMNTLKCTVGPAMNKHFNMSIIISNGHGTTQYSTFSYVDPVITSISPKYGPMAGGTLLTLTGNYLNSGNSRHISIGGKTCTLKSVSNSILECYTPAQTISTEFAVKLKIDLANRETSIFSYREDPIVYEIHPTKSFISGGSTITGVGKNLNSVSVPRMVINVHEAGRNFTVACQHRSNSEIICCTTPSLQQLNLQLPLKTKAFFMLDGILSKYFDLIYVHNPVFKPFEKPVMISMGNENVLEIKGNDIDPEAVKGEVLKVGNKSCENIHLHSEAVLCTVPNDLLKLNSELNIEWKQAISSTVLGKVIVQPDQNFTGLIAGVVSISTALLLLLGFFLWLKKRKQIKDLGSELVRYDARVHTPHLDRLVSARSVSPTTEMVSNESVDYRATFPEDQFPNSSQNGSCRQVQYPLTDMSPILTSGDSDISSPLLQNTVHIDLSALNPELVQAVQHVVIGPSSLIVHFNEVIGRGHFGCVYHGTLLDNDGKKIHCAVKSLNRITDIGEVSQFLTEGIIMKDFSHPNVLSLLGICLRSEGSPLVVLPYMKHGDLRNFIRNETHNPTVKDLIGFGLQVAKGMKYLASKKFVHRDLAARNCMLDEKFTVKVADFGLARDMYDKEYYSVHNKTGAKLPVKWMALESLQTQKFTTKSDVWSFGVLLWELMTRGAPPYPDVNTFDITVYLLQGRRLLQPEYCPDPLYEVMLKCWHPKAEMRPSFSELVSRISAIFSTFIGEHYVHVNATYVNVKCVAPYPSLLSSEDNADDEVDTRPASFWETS
Proto-oncogene tyrosine-protein kinase Src, sequence (P12931 2-536 limits assumed): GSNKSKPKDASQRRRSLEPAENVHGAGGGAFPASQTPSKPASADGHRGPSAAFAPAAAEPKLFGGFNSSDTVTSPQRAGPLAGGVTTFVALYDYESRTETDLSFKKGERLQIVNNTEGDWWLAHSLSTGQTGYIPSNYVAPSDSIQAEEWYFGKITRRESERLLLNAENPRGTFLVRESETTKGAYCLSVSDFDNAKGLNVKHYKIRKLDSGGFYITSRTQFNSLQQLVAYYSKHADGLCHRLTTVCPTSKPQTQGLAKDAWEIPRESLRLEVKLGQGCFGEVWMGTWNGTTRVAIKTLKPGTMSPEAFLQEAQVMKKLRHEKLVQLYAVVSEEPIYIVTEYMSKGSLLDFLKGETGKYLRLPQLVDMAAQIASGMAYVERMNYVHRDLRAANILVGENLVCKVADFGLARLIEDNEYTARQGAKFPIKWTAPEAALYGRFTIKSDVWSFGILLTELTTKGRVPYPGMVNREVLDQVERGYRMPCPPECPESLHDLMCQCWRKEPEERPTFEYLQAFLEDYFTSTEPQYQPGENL

N[C@@H](CCCCN=CC1C(=O)Nc2ccc(Br)cc21)C(=O)O (stereo partly drawn) [(Z/E)-(2S)-2-amino-6-([(5-bromo-2-oxo-indolin-3-ylidene)methyl]amino)hexanoic acid hydrochloride]
< 5.00: all assays above

N[C@@H](CCCN=CC1C(=O)Nc2ccccc21)C(=O)O (stereo partly drawn) [(Z/E)-(2S)-2-amino-5-([(2-oxo-indolin-3-ylidene)methyl]amino)pentanoic acid hydrochloride]
< 5.00: all assays above

N[C@@H](CCCCN=CC1C(=O)Nc2ccccc21)C(=O)O (stereo partly drawn) [(Z/E)-(2S)-2-amino-6-([(2-oxo-indolin-3-ylidene)methyl]amino)hexanoic acid hydrochloride]
< 5.00: all assays above
